49 compounds from a melting point compilation (Tetko et al.) can be followed below.

In the case of `O=C(O)C1(O)CCC1`, the melting point (commonly the temperature of the solid-liquid transition) was 39 to 41 °C.

As to `Cc1ccccc1OCCCC(=O)Nc1ccc(CN)cc1`, the melting point is 82 to 84 °C. The figure for `COc1ccc(C(O)c2ccc(OC)cc2C)cc1` (centres undefined) is 71 to 73 °C. Next, `COc1ccc(C(=O)O)cc1OCCO`: 190 to 192 °C. The figure for `Cc1cc(Oc2ccc(N)cc2)n[nH]1` is 189 to 191 °C; for `COC(=O)Cn1cc(C(C)=O)nn1` it is 79 to 81 °C. The compound `O=C(O)CSCc1cscn1` registered a melting point of 98 to 100 °C. The figure for `O=C(O)c1cc(C2CC2)on1` is 97 to 99 °C; for `CC(C)NC(=O)NC(=O)CCl` it is 86 to 88 °C. Next, `Cc1ccc(C(N)=O)cc1O`: 181 to 183 °C; `O=c1[nH]c(Cl)nc2c1cnn2-c1ccccc1`: 276 to 278 °C; `COC(=O)c1cc(S(N)(=O)=O)ccc1O`: 136 to 138 °C. The figure for `O=C(O)c1ccccc1NC(=O)C(F)(F)F` is 167 to 169 °C; for `Cc1ccc(NCCC(=O)O)cc1Cl` it is 80 to 82 °C. Compound `O=C(O)c1ccc(-n2cccc2)nc1` came in with a melting point of 259 to 261 °C. The figure for `Cc1cc(Cl)cc([N+](=O)[O-])c1I` is 73 to 75 °C; for `Cc1cccc2cc(C(=O)O)[nH]c12` it is 169 to 175 °C; for `CCOc1cc(Br)c(CC(=O)O)cc1OCC` it is 128 to 129 °C. Take `O=[N+]([O-])c1cc(O)cc(F)c1`: the melting point was in the range of 111 to 113 °C. Next, `COCCNS(=O)(=O)c1ccc(C)c(C(=O)O)c1`: 137 to 139 °C; `Cc1sc2nc(N)[nH]c(=O)c2c1C`: 353 to 355 °C; `O=C(O)CN1C(=O)Cn2c(cc3ccccc32)C1=O`: 331 to 333 °C. Next, `CN(C)S(=O)(=O)CCC(=O)O`: 121 to 123 °C; `CCn1c(S)nnc1C1CC1`: below 17 °C; `Cc1cc(NC(=O)C2CCCCC2C(=O)O)[nH]n1` (centres undefined): 114 to 116 °C.

Turning to `Cc1ccc(C(C)C)c(OCC(=O)O)c1`, the melting point fell in the range of 126 to 128 °C. The figure for `COc1ccc(C(=O)C(C)Br)c(OC)c1` (centres undefined) is 66 to 68 °C.

Take `Nc1cc(Br)c[nH]c1=S`: the melting point was 190 to 192 °C. For the compound `CC1CCC2(CC1)NC(=O)NC2=O` (centres undefined), the melting point is 230 to 232 °C. The figure for `NC(=O)CC(NC(=O)c1ccccc1Cl)C(=O)O` (centres undefined) is 190 to 192 °C; for `COc1ccccc1C(=O)Nc1ccc(O)cc1` it is 172 to 174 °C. The figure for `CNC(=O)c1cccc(C#N)c1` is 140 to 142 °C; for `CC(=O)Nc1ccc2c(c1)CN(C(=O)OC(C)(C)C)CC2` it is 110 to 112 °C.

For `O=C(O)c1c(-n2cccc2)sc2c1CCCC2`, the melting point was 158 to 162 °C. Next, `O=C(O)CCN1C(=O)c2ccc(Br)cc2C1=O`: 209 to 211 °C.

`CC(C)n1ncc2c(C(=O)O)cc(C3CC3)nc21` registered a melting point of 144 to 146 °C. Next, `Cc1cc([N+](=O)[O-])cc(C)c1S(=O)(=O)Cl`: 84 to 86 °C; `Cc1cc(Cl)n2nc(C(F)(F)F)nc2n1`: 106 to 108 °C.

`CC(C)(C)OC(=O)NC12CCC(C(=O)O)(C1)C2` showed a melting point of 169 to 171 °C. The figure for `O=C1NCCc2c(Br)cccc21` is 109 to 111 °C; for `NC(=O)Cc1ccc(N)cc1` it is 157 to 159 °C; for `NC(=O)OCC(F)(F)F` it is 42 to 44 °C. The figure for `Nc1ncncc1-c1ccc(Cl)cc1` is 195 to 197 °C. Next, `COc1ccc(C=C2CCCc3c2nc2ccccc2c3C(=O)O)cc1`: 157 to 159 °C; `NNC(=O)NC1CC1`: 64 to 66 °C; `O=C(O)c1csc(-c2cccc(C(F)(F)F)c2)n1`: 200 to 202 °C. On to `CCN(CC)S(=O)(=O)CC(=O)O`, for which the melting point lay within 59 to 61 °C. Compound `NCc1ccc2c(c1)CCO2` had a melting point of 38 to 40 °C. Next, `COc1cccc(C(=O)NN)c1O`: 144 to 146 °C.
